Here are results for 2 compounds from patent US9422318B2, “Epoxyeicosatrienoic acid analogs and methods of making and using the same” (THE MEDICAL COLLEGE OF WISCONSIN, INC., priority 2011, dated 2016).

Entries after “also recorded” stand apart in the source; their conditions may differ. Like-named read-outs stand apart in the source and are kept apart here. Bounds are passed on as bounds.

A word on the IC50: it is the concentration needed to halve the response being measured.

One experiment has as its system bovine coronary artery. The experiment can be described thus: Vasorelaxant activity in bovine coronary artery rings. Particulars: 10 μM; rings precontracted with U-46619; 100% relaxation = basal pre-U-46619 tension. As for the experimental part: Vasorelaxant activity was measured in bovine coronary artery. Bovine hearts were obtained and the left anterior descending coronary artery was dissected and cleaned of connective tissue. Vessels of 1 mm diameter were cut into rings of 3 mm width as previously described (3, 27, 39). […] The vessels were suspended from a pair of stainless steel hooks in a 6-ml water jacketed organ chamber. […] One hook was anchored to a steel rod and the other hook to a force transducer (model FT-03C; Grass Instruments, West Warwick, R.I.). Tension of the vessel was measured by an ETH-400 bridge amplifier, and the data were acquired with a MacLab 8e analog-to-digital converter and MacLab software version 3.5.6 (AD Instruments, Milford, Mass.) and stored on a Macintosh computer for subsequent data analysis.
Basal tension was set at the length-tension maximum of 3.5 g and equilibrated for 1.5 h. KCl (40 mM) was added to the chamber until reproducible maximal contractions were maintained. […] Cumulative additions of compounds were added to the chamber. Between concentration-response curves, the chambers were rinsed with fresh Krebs buffer, 40 mM KCl was administered to determine the maximum contraction, and the vessels were rinsed. Consecutive concentration-response curves were performed with 14,15-EET followed by a concentration-response curve to a compound. The experiment was always repeated with the order of the agonists reversed. […] The relaxation was plotted versus compound concentration and the EC50 determined utilizing statistical software.

A further experiment concerns the target Human recombinant sEH (Homo sapiens (Human), UniProt P34913). Description: Soluble epoxide hydrolase inhibition (PHOME fluorescent substrate). The format is biochemical. As for the experimental part:
Compounds were tested for their ability to inhibit recombinant soluble epoxide hydrolase (sEH) protein. The assay utilizes (3-Phhenyl-oxiranyl)-acetic acid cyano-(6-methoxy-naphthalen-2-yl)-methyl ester (PHOME), a sensitive substrate for sEH that can be used to monitor the activity of both human and murine enzymes. […] Human recombinant sEH was incubated with substrate and compounds ranging in concentration from 0.1 to 1000 nM.

Experiment [1] relates to Spontaneously Hypertensive Rats (SHR). Description: Telemetry blood pressure and heart rate in spontaneously hypertensive rats. It is filed as in vivo, rat. The settings on record: effect maintained until end of two-week treatment. An excerpt: To accurately detect changes in blood pressure and heart rate, telemetry transmitters (Data Sciences Inc., St. Paul, Minn.) were implanted in rats one week prior to the experimental period according to manufacturer's specifications while under pentobarbital anesthesia. In brief, an incision was made to expose the femoral artery that was occluded to allow insertion of the transmitter catheter. The catheter was secured in place with tissue glue and the transmitter body was sutured in place and the incision line was closed. Rats were allowed to recover from surgery and were returned to individual housing. A baseline arterial pressure was recorded for prior to the experimental period. Mean arterial pressure was continuously recorded throughout the experimental period.
Telemetry transmitters were implanted into male SHR as described. After the surgical recovery period, baseline mean arterial pressure was recorded. In this series of experiments, EET analogs were administered by osmotic pump (2 mg/d, i.p.) and blood pressure was continuously monitored.

Experiment [2] relates to cisplatin-induced nephrotoxicity in Wistar-Kyoto (WKY) rats. The experiment can be described thus: Cisplatin-induced nephrotoxicity in rats. The format is in vivo, rat. An excerpt: Experiments were approved and carried out according to the guidelines of the Institutional Animal Care and Use Committee, Medical College of Wisconsin, Milwaukee, USA. Male Wistar-Kyoto (WKY) rats weighing 180-200 g (Charles River, Mass., USA). All animals were kept in a temperature-controlled environment with a 12-h light/dark cycle and were allowed free access to food and water at all times. An acclimatization period of 6 days was allowed for the rats before experimentation. The rats were assigned into four groups. […] Rats received drinking water ad libitum for seven days and on day 7 DMSO (Sigma Aldrich, St. Louis, Mo., USA) was administered (300-500 μl i.p.). […] These rats are pretreated with the EET analog […].) for seven days in drinking water and then on day 7 administered CP as a single injection (7 mg/kg i.p.) followed by another five days treatment with EET-A. […] One day before the rats were sacrificed, urine of each rat was collected over a 24-h period, and the volume was measured. Five days after CP or DMSO administration, rats were anesthetized for blood sample collection followed by euthanasia and tissue collection. Urine and plasma samples were kept frozen at -80° C. until analyzed. The kidneys were removed, washed with physiological saline and stored at -80° C. until used for RT-PCR analysis, thiobarbituric acid reactive substance (TBARS) measurement and caspase 3 activity assay. […] The levels of blood urea nitrogen (BUN) (BioAssay Systems, Hayward, Calif., USA) and serum creatinine (Cayman Chemical Company, Ann Arbor, Mich., USA) were measured spectrophotometrically using commercial kits. Urinary content of creatinine and protein were measured using commercial kits (Cayman Chemical Company, Ann Arbor, Mich., USA), and the activity of urinary N-acetyl-b-glucosaminidase (NAG) in the urine was measured by a kit from Diazyme (Diazyme Laboratories, Poway, Calif., USA). While urine content of kidney injury molecule-1 (KIM-1) was measured using ELISA (R&D Systems, Inc. Minneapolis, Minn., USA). Malondialdehyde (MDA) is a thiobarbituric acid reactive substance (TBARS) that is formed as an end-product of lipid peroxidation and serves as an important index of oxidative stress. […] Using a commercially available kit (Cayman Chemical Company, Ann Arbor, Mich., USA), MDA was measured spectrophotometrically after reaction with thiobarbituric acid. […] Louis, Mo., USA). Kidney homogenate was prepared with a lysis Buffer (50 mM HEPES, pH 7.4, with 5 mM CHAPS and 5 mM DTT). […] The caspase 3 activity is expressed as nmol of AMC/min/μL. Real-Time analysis was carried out to assess the expression of oxidative (gp91phox, NOX1, SOD1, SOD2, SOD3), inflammatory (TNF-α, IL-6, apoptotic (Bax, Bak, Bcl-2) and endoplasmic reticulum stress (GRP78, caspase 12) related genes in the kidney. Total RNA was isolated from kidney homogenate using TRIzol LS reagents (Invitrogen Life Technologies, Carlsbad, Calif., USA) according to the manufacturer's instructions. The isolated RNA was treated with RNase-free DNase (Invitrogen, Carlsbad, Calif., USA) to remove traces of genomic DNA contamination. The mRNA samples were quantified by spectrophotometry at 260 nm and 1 μg of total RNA was reverse-transcribed to cDNA using iScriptTM Select cDNA Synthesis Kit (Bio-Rad, Hercules, Calif., USA). The target gene expression was quantified by iScript One-Step RT-PCR Kit with SYBR green using MyiQTM Single Color Real-Time PCR Detection System (Bio-Rad Laboratories, Hercules, Calif., USA). Each amplified sample in all wells was analyzed for homogeneity using dissociation curve analysis using iQ5 Optical System Software, Version 2.1 (Bio-Rad Laboratories, Hercules, Calif., USA). […] In analyzing the relative expression of the target genes, the Ct values were normalized to a housekeeping gene (pgk1). Statistical analyses were carried out for at least 5-7 experimental samples in each experimental group. Primers used in this study were designed based on several earlier reports. […]

In the next experiment the test system is NCCIT cells. Description: Cell viability by alamar blue assay, cisplatin with concurrent EET-A. Particulars: concurrent application of EET-A and cisplatin; NCCIT cancer cell line. The format is cell-based, human. Here is the method:
(§1) In this study, HEK293, U87MG, Hela cell-lines were obtained from the ATCC (Manassas, Va., USA) (HEK293, U87MG, Hela), and NCCIT was collected from Department of Pediatrics, UT Southwestern Medical Center at Dallas, Tex., USA. All cell lines were maintained in DMEM or RPIM with 10% fetal bovine serum and penicillin/streptomycin purchased from Life Technologies (Grand Island, N.Y., USA). Cisplatin was purchased from either Sigma (St. Louis, Mo., USA) or CalBiochem/EMD Biosciences (Billerica, Mass., USA). Cells were seeded in 96-well plates at 500 to 4,000 cells per well depends on cell type. […] Cell viability was measured by alamar blue assay using resazurin (Sigma Aldrich) according to the manufacturer's guidelines. Viability results were measured by fluorescence/absorbance in a 96-well plate reader from BMG Labtech (Cary, N.C., USA) and the IC50 was calculated by GraphPad Prism5 software (GraphPad Software Inc, La Jolla, Calif., USA).
(In general: The colour change of resazurin is a common sign of viable cells or microbes.)

Experiment [3] has as its system Hela, NCCIT and U87 cancer cell lines. The experiment can be described thus: Cell viability by alamar blue assay in cancer cell lines. It is filed as cell-based, human. The settings on record: 72 h. As for the experimental part: as §1

Human recombinant sEH, sequence (P34913 whole entry): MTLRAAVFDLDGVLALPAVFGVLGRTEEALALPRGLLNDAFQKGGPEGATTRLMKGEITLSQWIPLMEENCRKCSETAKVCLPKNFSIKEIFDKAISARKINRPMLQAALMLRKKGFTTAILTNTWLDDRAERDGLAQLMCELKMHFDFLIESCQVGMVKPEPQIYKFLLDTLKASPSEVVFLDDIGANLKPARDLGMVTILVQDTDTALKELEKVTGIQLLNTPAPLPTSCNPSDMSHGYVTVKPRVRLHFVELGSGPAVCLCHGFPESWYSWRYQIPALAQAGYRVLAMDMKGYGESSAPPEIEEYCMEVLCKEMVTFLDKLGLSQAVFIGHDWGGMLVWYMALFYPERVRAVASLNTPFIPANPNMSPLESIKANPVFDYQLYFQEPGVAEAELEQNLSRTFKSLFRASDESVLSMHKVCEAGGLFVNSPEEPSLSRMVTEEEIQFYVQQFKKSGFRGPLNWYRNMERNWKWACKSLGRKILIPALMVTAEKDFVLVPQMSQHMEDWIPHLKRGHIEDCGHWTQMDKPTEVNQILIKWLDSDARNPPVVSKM

As to `CCCCCCC(=O)N(CCCCCOc1cccc2sc(NC(C)=O)nc12)C(C)C` [Compound 30, N-(5-(2-Acetamidobenzo[d]thiazol-4-yloxy)pentyl)-N-isopropylheptanamide], the “Vascular Relax. % (10 μM)” value with bovine coronary artery is 96%. The half-maximal inhibitory concentration (IC50) at Human recombinant sEH (read-out: SEHi activity IC50) and on Human recombinant sEH (read-out: sEHi IC50) was more than 0.5 µM throughout. For the same compound, in experiment [1], the “start of blood pressure lowering” value is recorded as “within four days”.
Compound “Disodium (S)-2-(13-(3-pentylureido)tridec-8(Z)-enamido)succinate [EET-A]” registered a BUN in experiment [2] (10 mg/kg/d p.o., cisplatin 7 mg/kg i.p., day 5 after cisplatin, vehicle 241±51) of 108 ± 30 mg/dL. Also, the “plasma creatinine (PCr)” value in experiment [2] (10 mg/kg/d p.o., day 5 after cisplatin, vehicle 3.1±0.2) was found to be 2.0 ± 0.2 mg/dL. In experiment [2] (10 mg/kg/d p.o., vehicle 16±2), the “kidney TBARS formation” value is 7 ± 1 µmol/g. Moreover, the “reductions in renal mRNA expressions of inflammatory markers (TNF-α, IL-6, interleukin-1β)” value in experiment [2] (cisplatin-administered rats) was 40-60%. Also, in experiment [2] (cisplatin-administered rats, vehicle 53±5), the proteinuria was 33 ± 8 mg/day. Further, the “reductions in the elevated levels of serum creatinine and BUN” value in experiment [2] (five days after cisplatin, vs. vehicle) is on record as 30-50%. The compound also came in with an NAG in experiment [2] (urinary, 10 mg/kg/d p.o., vehicle 3.0±0.6) of 0.5±0.1 U/d. The compound further gave a KIM-1 in experiment [2] (urinary, 10 mg/kg/d p.o., vehicle 296±94) of 85 ± 29 ng/day. In addition, the “reduction in urinary excretion of NAG and KIM-1” value in experiment [2] (vs. cisplatin rats treated with vehicle) is on record as 30-50%. In experiment [2] (vs. vehicle), the “reduction of cisplatin-induced proteinuria” value is given as not below 40%. The “reduction in elevated renal expressions of GRP78 and caspase 12 mRNAs” value in experiment [2] (vs. vehicle treatment) is given as 2-4 fold. For the same compound, the “decrease in kidney expression of NOX1 and gp91phox mRNAs” value in experiment [2] (vs. vehicle-treated cisplatin rats) was 2-3 folds. Moreover, the “influence on cisplatin's chemotherapeutic effect” value with NCCIT cells is “did not influence”. The “effect on cell number / growth” value in experiment [3] is “no observable effects; also recorded: no effect”.
